Experiments:
[1] = New Trypsin Hyperalgesic Assay (NTHA); format: in vivo; conditions: po, 1 h, read-out: ED50, analgesic activity, NTHA (Rat): dose which reduced the average pain score 50% relative to solvent control
Protocol: A sensitive mild analgesic assay is the New Trypsin Hyperalgesic Assay (NTHA). At the start of the assay 250 μg of trypsin is injected in one hindlimb of each rat. Thirty minutes later each drug is given per os. One hour after the drugs are given the sensitivity of each rat to a 3.0 kg force is determined.

[2] = Yeast-induced hyperthermia assay, antipyretic activity; format: in vivo; conditions: po; rat, n exceeds 10
From the text: The Yeast-induced hyperthermia assay was used according to the procedure described by Khalili-Varasteh et al. in Arch. Int. Pharmacodyn.

[3] = Acetic Acid Writhing Test (AAWT), mouse; format: in vivo; conditions: po, read-out: ED50, analgesic activity, AAWT (Mouse)
From the text: (§1) Using the procedure described by Koster et al. in Fed. […] 26, Anti-inflammatory Drugs, Ed.

[4] = Acetic Acid Writhing Test (AAWT), rat; format: in vivo; conditions: po, read-out: ED50, analgesic activity, AAWT (Rat)
From the text: as §1

[5] = Carrageenin Pleurisy Assay (CPA), acute anti-inflammatory activity; format: in vivo, rat; conditions: po, read-out: ED50, acute anti-inflammatory activity (CPA): dose required to reduce the 3 hour exudate volume by 50%
Protocol: Following the procedure described by Vinegar et al. in Proc. Soc. Exp. Biol. Med. 151, 5546, (1976), the acute anti-inflammatory activity of the Compound A (defined in Example 16, vide supra) was compared with that of known anti-inflammatory drugs, i.e., aspirin an acetaminophen in the rat. The average 3 hour exudate volume for each drug treated group was determined and the % inhibition relative to a solvent control group calculated, the ED50 being the dose required to reduce the 3 hour exudate volume by 50%.

Toxicity (LD50) = conditions: rat, in vivo; Charles River CD rats, males and females
[6] = rat, p.o., 250 μg trypsin in one hindlimb, 3.0 kg force one hour after drug, n exceeds 10

Compound | ED50 [1, 6] | ED50 [2] | ED50 ([3]; Mus musculus) | ED50 ([4]; Rattus norvegicus) | ED50 ([1]; Rattus norvegicus) | ED50 ([5]; Rattus norvegicus, 3 h) | ED50 ([3]; mouse, p.o., n exceeds 10) | ED50 ([4]; rat, p.o., n exceeds 10) | ED50 ([5]; rat, p.o., 3 hour exudate volume, n exceeds 10) | LD50 (Toxicity (LD50))
CC(=O)Nc1ccc(O)cc1 [Acetaminophen] | 13 ± 1.7 mg/kg | 72 ± 8.6 mg/kg |  |  |  |  |  |  |  | 
CC(=O)Oc1ccccc1C(=O)O [Aspirin] |  | 50 ± 8.1 mg/kg | 21 ± 3.4 mg/kg | 137 ± 16.9 mg/kg | 14 ± 2.7 mg/kg | 28 ± 3.2 mg/kg |  |  |  | 
OC[C@H]1O[C@@H](n2cnc3c(Nc4ccccc4)ccnc32)[C@H](O)[C@@H]1O [Compound A, 7-anilino-3-β-D-ribofuranosyl-3H-imidazo[4,5-b]pyridine] | 0.1 ± 0.03 mg/kg | 0.65 ± 0.06 mg/kg |  |  |  |  | 0.33 ± 0.038 mg/kg | 0.74 ± 0.093 mg/kg | 0.24 ± 0.063 mg/kg | > 100 mg/kg

From patent US4780452A, “F-substituted-3-β-D-ribofuranosyl-3H-imidazo[4,5-b]pyridines and pharmaceutical compositions thereof” (Burroughs Wellcome Co., priority 1986, dated 1988)
